Measured values: patent publication US10125148B2, “Pyrazolopyrimidine macrocycles as inhibitors of human immunodeficiency virus replication” (priority 2014, dated 2018)
Where two headings read alike, the source gives them in different places.

Columns and labels:
[1] = rcm bond
NL-RLuc virus = test: Inhibition of HIV replication (NL-RLuc luciferase reporter virus in MT-2 cells); assay type: cell-based; details: Human immunodeficiency virus 1, MT2, 120 h
[2] = from C=CCOC1(C)CCN(c2c([C@H](OC(C)(C)C)C(=O)OC)c(C)nc3cc(-c4cccc(-c5cc(CC)ccc5O[C@@H](C)CC=C)c4)nn23)CC1; rcm bond; 20-membered ring; Hoveyda-Grubbs II (name truncated)/CuI; DCE; 1.09 mM; 3.0 h

## COC(=O)[C@@H](OC(C)(C)C)c1c(C)nc2cc3nn2c1N1CCC(C)(CC1)OC/C=C/C[C@H](C)Oc1cc(C)cc(F)c1-c1cccc-3c1
[1]; from C=CCOC1(C)CCN(c2c([C@H](OC(C)(C)C)C(=O)OC)c(C)nc3cc(-c4cccc(-c5c(F)cc(C)cc5O[C@@H](C)CC=C)c4)nn23)CC1, 20-membered ring, Ru-SIMes catalyst (name truncated), 3.0 h
  ring closure, isolated yield: 78%

## CCOC(=O)[C@@H](OC(C)(C)C)c1c(C)nc2cc3nn2c1N1CCC(C)(CC1)OCC=CC[C@H](C)Oc1ccc(C(=O)OC)cc1-c1cccc-3c1
[1]; from C=CCOC1(C)CCN(c2c([C@H](OC(C)(C)C)C(=O)OCC)c(C)nc3cc(-c4cccc(-c5cc(C(=O)OC)ccc5O[C@@H](C)CC=C)c4)nn23)CC1, 20-membered ring, Hoveyda-Grubbs II (0.1 eq)/CuI, DCE, 1.52 mM, 80.0 °C, 3.0 h
  ring closure, isolated yield: 83%

## CCOC(=O)[C@@H](OC(C)(C)C)c1c(C)nc2cc3nn2c1N1CCC(C)(CC1)OC/C=C/[C@H](C)Oc1ccc(C)c(F)c1-c1cccc-3c1
[1]; from C=CCOC1(C)CCN(c2c([C@H](OC(C)(C)C)C(=O)OCC)c(C)nc3cc(-c4cccc(-c5c(O[C@@H](C)C=C)ccc(C)c5F)c4)nn23)CC1, 19-membered ring, Grubbs II (0.1 eq)/CuI, DCE, 1.33 mM, 2.0 h
  ring closure, isolated yield: 94%

## CCOC(=O)[C@@H](OC(C)(C)C)c1c(C)nc2cc3nn2c1N1CCC(C)(CC1)OC/C=C/[C@H](C)Oc1ccc(F)cc1-c1cccc-3c1
[1]; from C=CCOC1(C)CCN(c2c([C@H](OC(C)(C)C)C(=O)OCC)c(C)nc3cc(-c4cccc(-c5cc(F)ccc5O[C@@H](C)C=C)c4)nn23)CC1, 19-membered ring, Grubbs II (0.1 eq)/CuI, DCE, 1.36 mM, 2.0 h
  ring closure, isolated yield: 67.3%

## CCOC(=O)[C@@H](OC(C)(C)C)c1c(C)nc2cc3nn2c1N1CCC(C)(CC1)OC/C=C/[C@H](C)Oc1cc(C)ccc1-c1cccc-3c1
[1]; from C=CCOC1(C)CCN(c2c([C@H](OC(C)(C)C)C(=O)OCC)c(C)nc3cc(-c4cccc(-c5ccc(C)cc5O[C@@H](C)C=C)c4)nn23)CC1, 19-membered ring, Grubbs II (0.1 eq)/CuI, DCE, 1.32 mM, 2.0 h
  ring closure, isolated yield: 69.5%

## CCOC(=O)[C@@H](OC(C)(C)C)c1c(C)nc2cc3nn2c1N1CCC(C)(CC1)OC/C=C/C(C)Oc1cc(F)ccc1-c1cccc-3c1 (some centres unmarked)
[1]; from C=CCOC1(C)CCN(c2c([C@H](OC(C)(C)C)C(=O)OCC)c(C)nc3cc(-c4cccc(-c5ccc(F)cc5O[C@@H](C)C=C)c4)nn23)CC1, 19-membered ring, Grubbs II (0.1 eq)/CuI, DCE, 1.27 mM, 2.0 h
  ring closure, isolated yield: 96%

## CCOC(=O)[C@@H](OC(C)(C)C)c1c(C)nc2cc3nn2c1N1CCC(C)(CC1)OC/C=C/[C@H](C)Oc1cc(C)cc(F)c1-c1cccc-3c1
[1]; from C=CCOC1(C)CCN(c2c([C@H](OC(C)(C)C)C(=O)OCC)c(C)nc3cc(-c4cccc(-c5c(F)cc(C)cc5O[C@@H](C)C=C)c4)nn23)CC1, 19-membered ring, Grubbs II (0.1 eq)/CuI, DCE, 1.09 mM, 2.0 h
  ring closure, isolated yield: 72%

## COC(=O)[C@@H](OC(C)(C)C)c1c(C)nc2cc3nn2c1N1CCC(C)(CC1)OCC=CC[C@H](C)Oc1cc(F)cc(F)c1-c1cccc-3c1
[1]; from C=CCOC1(C)CCN(c2c([C@H](OC(C)(C)C)C(=O)OC)c(C)nc3cc(-c4cccc(-c5c(F)cc(F)cc5O[C@@H](C)CC=C)c4)nn23)CC1, 20-membered ring, Hoveyda-Grubbs II (2 x 0.05 eq), toluene, 1.26 mM, 80.0 °C, 3.0 h
  ring closure, isolated yield: 48%

## Cc1ccc2c(c1)O[C@@H](C)/C=C/COC1(C)CCN(CC1)c1c([C@H](OC(C)(C)C)C(=O)O)c(C)nc3cc(nn13)-c1cccc-2c1 [Example 15, (2S)-2-(tert-Butoxy)-2-[(22S,23E)-4,18,22,27-tetramethyl-21,26-dioxa-1,5,7,8-tetraazahexacyclo[25.2.2.1^6,9.1^10,14.0^2,7.0^15,20]tritriaconta-2,4,6(33),8,10(32),11,13,15(20),16,18,23-undecaen-3-yl]acetic acid]
NL-RLuc virus
  EC50: 8 nM

## Cc1nc2cc3nn2c(c1[C@H](OC(C)(C)C)C(=O)O)N1CCC(C)(CC1)OCCCC[C@H](C)Oc1cc(F)cc(F)c1-c1cccc-3c1 [Example 3, (2S)-2-(tert-Butoxy)-2-[(22S)-16,18-difluoro-4,22,28-trimethyl-21,27-dioxa-1,5,7,8-tetraazahexacyclo[26.2.2.1^6,9.1^10,14.0^2,7.0^15,20]tetratriaconta-2,4,6(34),8,10(33),11,13,15(20),16,18-decaen-3-yl]acetic acid]
NL-RLuc virus
  EC50: 26 nM

## Cc1ccc2c(c1)-c1cccc(c1)-c1cc3nc(C)c([C@H](OC(C)(C)C)C(=O)O)c(n3n1)N1CCC(C)(CC1)O/C=C\CC[C@H](C)O2 [Example 19, (2S)-2-(tert-Butoxy)-2-[(22S,25Z)-4,17,22,28-tetramethyl-21,27-dioxa-1,5,7,8-tetraazahexacyclo[26.2.2.1^6,9.1^10,14.0^2,7.0^15,20]tetratriaconta-2,4,6(34),8,10(33),11,13,15(20),16,18,25-undecaen-3-yl]acetic acid]
NL-RLuc virus
  EC50: 33 nM

## Cc1cc(F)c2c(c1)O[C@@H](C)CCCOC1(C)CCN(CC1)c1c([C@H](OC(C)(C)C)C(=O)O)c(C)nc3cc(nn13)-c1cccc-2c1 [Example 18, (2S)-2-(tert-Butoxy)-2-[(22S)-16-fluoro-4,18,22,27-tetramethyl-21,26-dioxa-1,5,7,8-tetraazahexacyclo[25.2.2.1^6,9.1^10,14.0^2,7.0^15,20]tritriaconta-2,4,6(33),8,10(32),11,13,15(20),16,18-decaen-3-yl]acetic acid]
NL-RLuc virus
  EC50: 7 nM

## CCc1ccc2c(c1)-c1cccc(c1)-c1cc3nc(C)c([C@H](OC(C)(C)C)C(=O)OC)c(n3n1)N1CCC(C)(CC1)OCC=CC[C@H](C)O2
[2]
  ring closure, crude yield: 92%

## Cc1nc2cc3nn2c(c1[C@H](OC(C)(C)C)C(=O)O)N1CCC(C)(CCC=CCC(C)Oc2ccc(C#N)cc2-c2cccc-3c2)CC1 (stereo in doubt) [Example 22, (2S)-2-(tert-Butoxy)-2-[(22S)-17-cyano-4,22,28-trimethyl-21-oxa-1,5,7,8-tetraazahexacyclo[26.2.2.1^6,9.1^10,14.0^2,7.0^15,20]tetratriaconta-2,4,6(34),8,10(33),11,13,15(20),16,18,24-undecaen-3-yl]acetic acid]
NL-RLuc virus
  EC50: 13 nM

## Cc1nc2cc3nn2c(c1[C@H](OC(C)(C)C)C(=O)O)N1CCC(C)(CC1)OCCC[C@H](C)Oc1ccc(F)cc1-c1cccc-3c1 [Example 14, (2S)-2-(tert-Butoxy)-2-[(22S)-17-fluoro-4,22,27-trimethyl-21,26-dioxa-1,5,7,8-tetraazahexacyclo[25.2.2.1^6,9.1^10,14.0^2,7.0^15,20]tritriaconta-2,4,6(33),8,10(32),11,13,15(20),16,18-decaen-3-yl]acetic acid]
NL-RLuc virus
  EC50: 9 nM

## Cc1nc2cc3nn2c(c1[C@H](OC(C)(C)C)C(=O)O)N1CCC(C)(CC1)OCCC[C@H](C)Oc1cc(F)ccc1-c1cccc-3c1 [Example 10, (2S)-2-(tert-Butoxy)-2-[(22S)-18-fluoro-4,22,27-trimethyl-21,26-dioxa-1,5,7,8-tetraazahexacyclo[25.2.2.1^6,9.1^10,14.0^2,7.0^15,20]tritriaconta-2,4,6(33),8,10(32),11,13,15(20),16,18-decaen-3-yl]acetic acid]
NL-RLuc virus
  EC50: 11 nM

## Cc1ccc2c(c1)-c1cccc(c1)-c1cc3nc(C)c([C@H](OC(C)(C)C)C(=O)O)c(n3n1)N1CCC(C)(CCC=CCC(C)O2)CC1 (stereo in doubt) [Example 20, (2S)-2-(tert-Butoxy)-2-[(22S)-4,17,22,28-tetramethyl-21-oxa-1,5,7,8-tetraazahexacyclo[26.2.2.1^6,9.1^10,14.0^2,7.0^15,20]tetratriaconta-2,4,6(34),8,10(33),11,13,15(20),16,18,24-undecaen-3-yl]acetic acid]
NL-RLuc virus
  EC50: 133 nM
